Earlier results in US5922837A, “Antiprotozoal cyclic tetrapeptides” (Merck & Co., Inc., priority 1997, dated 1999).

Columns and labels:
[1] = test system: mammalian histone deacetylase
[2] = test system: v-sis-transformed NIH3T3 cells
[3] = test system: partially purified yeast histone deacetylase
[4] = test system: trichomonal
[5] = test system: murine erythroleukemia cells
[6] = test system: sis-transformed fibroblast cells

| Compound | type of inhibition of mammalian histone deacetylase [1] | morphological reversion [2] | inhibition of partially purified yeast histone deacetylase [3] | anti-trichomonal activity [4] | cell differentiating activity [5] | induction of phenotypic reversion [6] |
| --- | --- | --- | --- | --- | --- | --- |
| trapoxin A | irreversible | induces morphological reversion | – | – | – | – |
| CC(/C=C/C(=O)NO)=C\[C@@H](C)C(=O)c1ccc(N(C)C)cc1 [trichostatin A] | reversible | – | inhibit | anti-trichomonal activity | cell differentiating activity | ability to induce phenotypic reversion |
